Test results reported in ChEMBL document CHEMBL3785027 (Eur J Med Chem, 2016).

Columns and labels:
Format in all cases: functional, cell-based
[1] = Cytotoxicity against human KBVIN cells after 72 hrs by sulforhodamine B colorimetric assay
KB = experiment: Cytotoxicity against human KB cells after 72 hrs by sulforhodamine B colorimetric assay
A549 = experiment: Cytotoxicity against human A549 cells after 72 hrs by sulforhodamine B colorimetric assay; settings: A549, 72 h

Row | SMILES | IC50 [1] | IC50 (KB) | IC50 (A549)
1 | CCCCS(=O)(=O)/N=C(\Cc1ccc(OC)cc1)NCC(=O)O[C@]1(CC)C(=O)OCc2c1cc1n(c2=O)Cc2cc3ccccc3nc2-1 | 43.5 nM | 54.2 nM | 34.9 nM
2 | CC[C@@]1(OC(=O)CN/C(Cc2ccc(OC)cc2)=N/S(=O)(=O)c2ccc(C)cc2)C(=O)OCc2c1cc1n(c2=O)Cc2cc3ccccc3nc2-1 | 26.3 nM |  | 
3 | CC[C@@]1(OC(=O)CN/C(Cc2ccc(OC)cc2)=N/S(=O)(=O)N(C)C)C(=O)OCc2c1cc1n(c2=O)Cc2cc3ccccc3nc2-1 | 45.3 nM | 66.5 nM | 40.8 nM
4 | CC[C@@]1(OC(=O)CN/C(Cc2ccc(OC)cc2)=N/S(=O)(=O)CC)C(=O)OCc2c1cc1n(c2=O)Cc2cc3ccccc3nc2-1 | 78.6 nM | 64.2 nM | 48.1 nM
5 | CCc1c2c(nc3ccccc13)-c1cc3c(c(=O)n1C2)COC(=O)[C@@]3(CC)OC(=O)CN/C(Cc1ccccc1)=N/S(=O)(=O)c1ccc(C)cc1 | 18.5 nM | 89.5 nM | 7.2 nM
6 | CCc1c2c(nc3ccc(O)cc13)-c1cc3c(c(=O)n1C2)COC(=O)[C@@]3(CC)OC(=O)CN/C(Cc1ccc(OC)cc1)=N/S(=O)(=O)c1ccc(C)cc1 | 28.2 nM | 4.5 nM | 21.8 nM
7 | CC[C@@]1(OC(=O)CN/C(Cc2ccc(OC)cc2)=N/S(=O)(=O)c2ccc(C)cc2)C(=O)OCc2c1cc1n(c2=S)Cc2cc3ccccc3nc2-1 | 159 nM | 233 nM | 140 nM
8 | CC[C@@](O)(C(=O)NCCN/C(Cc1ccc(OC)cc1)=N/S(=O)(=O)c1ccc(C)cc1)c1cc2n(c(=O)c1COC(C)=O)Cc1cc3ccccc3nc1-2 | 947 nM | 937 nM | 688 nM
9 | CC[C@@]1(OC(=O)CCCN/C(Cc2ccc(OC)cc2)=N\S(=O)(=O)c2ccc(C)cc2)C(=O)OCc2c1cc1n(c2=O)Cc2cc3ccccc3nc2-1 | 955 nM | 830 nM | 448 nM
10 | CC[C@@]1(OC(=O)CN/C(Cc2ccc(OC)cc2)=N/S(=O)(=O)c2cccs2)C(=O)OCc2c1cc1n(c2=O)Cc2cc3ccccc3nc2-1 | 32.5 nM | 55 nM | 37.5 nM
11 | CC[C@@]1(OC(=O)CN/C(Cc2ccc(OC)cc2)=N/S(=O)(=O)c2ccc(C)cc2)CC(=O)OCc2c1cc1n(c2=O)Cc2cc3ccccc3nc2-1 | 263 nM | 232 nM | 83.6 nM
12 | CC[C@@]1(OC(=O)CN/C(Cc2ccc(OC)cc2)=N/S(=O)(=O)c2ccc(F)cc2)C(=O)OCc2c1cc1n(c2=O)Cc2cc3ccccc3nc2-1 | 22.5 nM | 16.9 nM | 14.1 nM
13 | CC[C@@]1(OC(=O)C(C)N/C(Cc2ccc(OC)cc2)=N/S(=O)(=O)c2ccc(C)cc2)C(=O)OCc2c1cc1n(c2=S)Cc2cc3ccccc3nc2-1 (stereo partly specified) | 151 nM | 109 nM | 86.9 nM
14 | CCc1c2c(nc3ccc(OC(=O)N4CCC(N5CCCCC5)CC4)cc13)-c1cc3c(c(=O)n1C2)COC(=O)[C@]3(O)CC [IRINOTECAN] | > 20000 nM | 9830 nM | 9480 nM
15 | CC[C@@]1(OC(=O)CN/C(Cc2ccc(C)cc2)=N/S(=O)(=O)c2ccc(C)cc2)C(=O)OCc2c1cc1n(c2=O)Cc2cc3ccccc3nc2-1 | 27.5 nM | 73.9 nM | 17.4 nM
16 | CCc1c2c(nc3ccccc13)-c1cc3c(c(=O)n1C2)COC(=O)[C@@]3(CC)OC(=O)C(C)N/C(Cc1ccc(OC)cc1)=N/S(C)(=O)=O (stereo partly specified) | 98.2 nM | 95.2 nM | 61 nM
17 | CCc1c2c(nc3ccccc13)-c1cc3c(c(=O)n1C2)COC(=O)[C@@]3(CC)OC(=O)C(C)N/C(Cc1ccc(OC)cc1)=N/S(=O)(=O)c1ccc(C)cc1 (stereo partly specified) | 22.7 nM | 84.2 nM | 16 nM
18 | CC[C@@]1(OC(=O)CN/C(C[Si](C)(C)C)=N/S(=O)(=O)c2ccc(C)cc2)C(=O)OCc2c1cc1n(c2=O)Cc2cc3ccccc3nc2-1 | 39.9 nM | 57.8 nM | 30.2 nM

Row | SMILES | IC50 [1] | IC50 (KB) | IC50 (A549)
19 | CC[C@@]1(OC(=O)CN/C(Cc2ccc(OC)cc2)=N/S(=O)(=O)c2cccnc2)C(=O)OCc2c1cc1n(c2=O)Cc2cc3ccccc3nc2-1 | 123 nM | 93.8 nM | 76.5 nM
20 | CC[C@@]1(OC(=O)CN/C(Cc2ccccc2)=N/S(=O)(=O)c2ccc(C)cc2)C(=O)OCc2c1cc1n(c2=O)Cc2cc3c([N+](=O)[O-])cccc3nc2-1 | 9130 nM | 9050 nM | 8270 nM
21 | CC[C@@]1(OC(=O)CCN/C(Cc2ccc(OC)cc2)=N\S(=O)(=O)c2ccc(C)cc2)C(=O)OCc2c1cc1n(c2=O)Cc2cc3ccccc3nc2-1 | 527 nM | 622 nM | 88.9 nM
22 | CC[C@@]1(OC(=O)CN/C(Cc2ccc(OC)cc2)=N/S(=O)(=O)c2ccc(Cl)cc2)C(=O)OCc2c1cc1n(c2=O)Cc2cc3ccccc3nc2-1 | 24.8 nM | 73 nM | 16.5 nM
23 | CC[C@@]1(OC(=O)CN/C(Cc2ccc(OC)cc2)=N/S(C)(=O)=O)C(=O)OCc2c1cc1n(c2=O)Cc2cc3ccccc3nc2-1 | 63.5 nM | 105 nM | 54 nM
24 | CC[C@@]1(OC(=O)CN/C(Cc2ccc(OC)cc2)=N/S(=O)(=O)c2ccc(OC)cc2)C(=O)OCc2c1cc1n(c2=O)Cc2cc3ccccc3nc2-1 | 22.2 nM | 51.6 nM | 31.9 nM
25 | CC[C@@]1(OC(=O)CN/C(Cc2ccc(OC)cc2)=N/S(=O)(=O)c2ccc(C)cc2)C(=O)OCc2c1cc1n(c2=O)Cc2cc3cccc([N+](=O)[O-])c3nc2-1 | 10700 nM | 11300 nM | 13900 nM
26 | CCc1c2c(nc3ccccc13)-c1cc3c(c(=O)n1C2)COC(=O)[C@@]3(CC)OC(=O)CN/C(Cc1ccc(OC)cc1)=N/S(=O)(=O)c1ccc(C)cc1 | 10.1 nM | 9.4 nM | 6.8 nM
27 | CC[C@@]1(OC(=O)CN/C(Cc2ccc(OC)cc2)=N/S(=O)(=O)c2ccc3ccccc3c2)C(=O)OCc2c1cc1n(c2=O)Cc2cc3ccccc3nc2-1 | 25.6 nM | 68.7 nM | 16.2 nM
28 | CC[C@@]1(OC(=O)CN/C(Cc2ccc(OC)cc2)=N/S(=O)(=O)c2ccc(C)cc2)C(=O)OCc2c1cc1n(c2=O)C(OC)c2cc3ccccc3nc2-1 (stereo partly specified) | 6880 nM | 7560 nM | 7310 nM
29 | CCc1c(OP(=O)(O)OC)ccc2nc3c(cc12)Cn1c-3cc2c(c1=O)COC(=O)[C@@]2(CC)OC(=O)CN/C(Cc1ccc(OC)cc1)=N/S(=O)(=O)c1ccc(C)cc1 | 305 nM | 141 nM | 344 nM
30 | CC[C@@]1(OC(=O)CN/C(Cc2ccc(Cl)cc2)=N/S(=O)(=O)c2ccc(C)cc2)C(=O)OCc2c1cc1n(c2=O)Cc2cc3ccccc3nc2-1 | 64.8 nM | 100 nM | 54.9 nM
31 | CCc1c2c(nc3ccccc13)-c1cc3c(c(=O)n1C2)COC(=O)[C@@]3(CC)OC(=O)CN/C(Cc1ccc(OC)cc1)=N/S(C)(=O)=O | 25.8 nM | 16.7 nM | 19.8 nM
32 | CC[C@@]1(OC(=O)CN/C(Cc2ccc(OC)cc2)=N/S(=O)(=O)c2ccc([N+](=O)[O-])cc2)C(=O)OCc2c1cc1n(c2=O)Cc2cc3ccccc3nc2-1 | 14.9 nM | 14.9 nM | 14.9 nM
33 | CC[C@@]1(OC(=O)CN/C(Cc2ccc(OC)cc2)=N/S(=O)(=O)c2ccc(C)cc2)C(=O)OCc2c1cc1n(c2=O)Cc2cc3c([N+](=O)[O-])cccc3nc2-1 | 4580 nM | 7040 nM | 6270 nM
34 | CC[C@@]1(OC(=O)CN/C(Cc2ccc(OC)cc2)=N/S(=O)(=O)c2ccc(C)cc2)C(=O)OCc2c1cc1n(c2=O)Cc2cc3cc(O)ccc3nc2-1 | 101 nM | 63.1 nM | 64 nM
35 | CCc1c2c(nc3ccccc13)-c1cc3c(c(=O)n1C2)COC(=O)[C@@]3(CC)OC(=O)C(C)N/C(Cc1ccc(Cl)cc1)=N/S(=O)(=O)c1ccc(C)cc1 (stereo partly specified) | 16 nM | 13.3 nM | 12.9 nM
36 | CCc1c2c(nc3ccccc13)-c1cc3c(c(=O)n1C2)COC(=O)[C@@]3(CC)OC(=O)C(C)N/C(Cc1ccccc1)=N/S(=O)(=O)c1ccc(C)cc1 (stereo partly specified) | 19.5 nM | 83.6 nM | 10.2 nM
